Patent publication US10364323B2, “Method for producing polyether carbonate polyols” (priority 2015, dated 2019)

Test: physchem
Text: The pKa in the context of the process according to the invention is to be understood as meaning the negative decadic logarithm of the first dissociation constant of the carboxylic acid at a temperature of 25 degrees Celsius. […] The pKa of the carboxylic acid may be measured by determining the pH at the half-equivalence point. To this end, an aqueous solution of the carboxylic acid is titrated against sodium hydroxide solution of a defined concentration and in each case the pH of the solution is measured using a calibrated combination pH electrode. […] According to the Henderson-Hasselbalch equation at the half-equivalence point the pKa corresponds to the measured pH because the acid and its corresponding base are present in equal concentration. Carboxylic acids having an insufficient solubility in water are titrated in methanolic solution (pKLy=16.7) or ethanolic solution (pKLy=19.1), wherein pKLy is defined as follows for non-aqueous media.
[formula] […] Chem., 1985, Vol. 57, No. 6, pp. 865-876.

In the case of `O=C(O)C(=O)O` [Oxalic acid], the pKa is reported as 1.46.
Work on `O=C(O)CCCCCC(=O)O` [Pimelic acid] yielded a pKa of 4.71.
